We go through eight molecules from patent publication US12398154B2, “Azaquinazoline pan-KRas inhibitors” (Mirati Therapeutics, Inc., priority 2020, dated 2025).

Molecules are shown by their SMILES. A value given as a limit tells only on which side of the number the result lay.

The subject of one experiment is pERK in ASPC1 cells. Nature of the experiment: Inhibition of KRas phosphorylation of ERK (Cisbio HTRF pERK assay). The conditions noted are these: Homo sapiens, ASPC1, read-out: Inhibition (HTRF IC50) of KRas-mediated Phosphorylation of ERK, AsPC-1. For orientation: In TR-FRET formats the signal depends on donor and acceptor labels being close together.
The target in another experiment is KRas WT (Homo sapiens, UniProt P01116). Nature of the experiment: biochemical.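 Note: binding to KRas read as TR-FRET displacement after a one-hour room-temperature incubation, IC50 derived from percent-of-control values.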
KRas WT, sequence (P01116 1-169 isoform P01116-2): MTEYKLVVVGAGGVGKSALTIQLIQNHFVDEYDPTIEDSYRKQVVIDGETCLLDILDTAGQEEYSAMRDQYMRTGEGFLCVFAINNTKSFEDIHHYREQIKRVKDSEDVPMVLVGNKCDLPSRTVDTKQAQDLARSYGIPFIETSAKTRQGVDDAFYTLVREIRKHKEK
A further experiment deals with pERK in H358 cells. The experiment is described as follows: Inhibition of KRas phosphorylation of ERK (Cisbio HTRF pERK assay). The conditions noted are these: Homo sapiens, NCI-H358, read-out: Inhibition (HTRF IC50) of KRas-mediated Phosphorylation of ERK, H358.
The target in a further experiment is KRas G12D (Homo sapiens, UniProt P01116, G12D). Nature of the experiment: biochemical.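 Note: TR-FRET displacement binding assay on KRas, read after a one-hour incubation at room temperature, IC50 fitted from percent-of-control values.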
KRas G12D, sequence (P01116 1-169 isoform P01116-2 G12D): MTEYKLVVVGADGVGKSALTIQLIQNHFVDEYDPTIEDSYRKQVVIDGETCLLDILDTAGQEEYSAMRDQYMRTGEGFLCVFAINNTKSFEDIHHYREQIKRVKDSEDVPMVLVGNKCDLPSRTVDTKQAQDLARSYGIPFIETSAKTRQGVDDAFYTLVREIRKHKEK
For another experiment, the target named is KRas G12R (Homo sapiens, UniProt P01116, G12R). The experiment is described as follows: biochemical.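 Note: TR-FRET displacement assay of compound binding to KRas, read after one hour at room temperature, potency from a four-parameter fit of percent-of-control values.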
KRas G12R, sequence (P01116 1-169 isoform P01116-2 G12R): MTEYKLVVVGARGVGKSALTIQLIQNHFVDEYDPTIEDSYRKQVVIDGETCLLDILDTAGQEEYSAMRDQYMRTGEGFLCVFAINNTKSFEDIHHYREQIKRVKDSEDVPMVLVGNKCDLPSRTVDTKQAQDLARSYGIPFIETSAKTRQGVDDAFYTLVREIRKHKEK
The subject of another experiment is pERK in H727 cells. Nature of the experiment: Inhibition of KRas phosphorylation of ERK (Cisbio HTRF pERK assay). To be noted: Homo sapiens, NCI-H727, read-out: Inhibition (HTRF IC50) of KRas-mediated Phosphorylation of ERK, H727.
For the next experiment, the system named is pERK in A549 cells. The description is as above. The conditions noted are these: Homo sapiens, A549, read-out: Inhibition (HTRF IC50) of KRas-mediated Phosphorylation of ERK, A549.
The next experiment concerns pERK in MKN1 cells. The experiment is described as above. The conditions noted are these: Homo sapiens, MKN-1, 3 h, read-out: Inhibition (HTRF IC50) of KRas-mediated Phosphorylation of ERK, MKN1.
Another experiment relates to pERK in H460 cells. The description is as above. The conditions noted are these: Homo sapiens, NCI-H460, read-out: Inhibition (HTRF IC50) of KRas-mediated Phosphorylation of ERK, H460.
The test system of the next experiment is pERK in PSN1 cells. Described as above. The conditions noted are these: Homo sapiens, PSN1, 3 h, read-out: Inhibition (HTRF IC50) of KRas-mediated Phosphorylation of ERK, PSN1.
The next experiment addresses KRas G12C (Homo sapiens, UniProt P01116, G12C). Nature of the experiment: biochemical.
For a further experiment, the target named is KRas G12V (Homo sapiens, UniProt P01116, G12V). Nature of the experiment: biochemical.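 Note: KRas binding measured by TR-FRET displacement at room temperature, IC50 fitted from percent of control values.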
KRas G12V, sequence (P01116 1-169 isoform P01116-2 G12V): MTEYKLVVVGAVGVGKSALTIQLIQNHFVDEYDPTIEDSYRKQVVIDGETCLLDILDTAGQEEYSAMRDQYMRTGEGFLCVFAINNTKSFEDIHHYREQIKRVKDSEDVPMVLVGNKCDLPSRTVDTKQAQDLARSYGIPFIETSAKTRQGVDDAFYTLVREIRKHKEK
In a further experiment the test system is pERK in HCT116 cells. The experiment is described as follows: Inhibition of KRas phosphorylation of ERK (Cisbio HTRF pERK assay). The conditions noted are these: Homo sapiens, HCT-116, read-out: Inhibition (HTRF IC50) of KRas-mediated Phosphorylation of ERK, HCT116.

As usually defined, the IC50 is the point on the concentration scale where inhibition reaches its midpoint.

KRas G12C, sequence (P01116 1-169 isoform P01116-2 G12C): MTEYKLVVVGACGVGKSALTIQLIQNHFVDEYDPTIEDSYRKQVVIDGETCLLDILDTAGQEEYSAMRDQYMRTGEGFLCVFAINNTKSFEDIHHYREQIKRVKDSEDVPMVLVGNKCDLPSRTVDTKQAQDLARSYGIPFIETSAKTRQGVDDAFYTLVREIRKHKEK

With `CCc1c(F)ccc2cc(O)cc(-c3ncc4c(N5CCCC6(CNS(=O)(=O)N6)C5)nc(OC[C@@]56CCCN5C[C@H](F)C6)nc4c3F)c12` (stereo partly drawn) [Example 330, 7-(7-(8-ethyl-7-fluoro-3-hydroxynaphthalen-1-yl)-8-fluoro-2-(((2R,7aS)-2-fluorohexahydro-1H-pyrrolizin-7a-yl)methoxy)pyrido[4,3-d]pyrimidin-4-yl)-2-thia-1,3,7-triazaspiro[4.5]decane 2,2-dioxide], the IC50 was 29 nM in the experiment with pERK in ASPC1 cells; at most 2 nM against KRas WT; 11 nM in the experiment on pERK in H358 cells; at most 2 nM against KRas G12D; at most 2 nM against KRas G12R; 61 nM with pERK in H727 cells. Besides, the IC50 was 84 nM with pERK in A549 cells; 8 nM in the experiment with pERK in MKN1 cells; 52 nM in the experiment with pERK in H460 cells; 305 nM with pERK in PSN1 cells; at most 2 nM against KRas G12C; at most 2 nM against KRas G12V. In addition, in the experiment with pERK in HCT116 cells, the IC50 was 57 nM.
Take `CCc1c(F)ccc2cc(O)cc(-c3ncc4c(N5CCCn6nc(C(=O)N7CCN(C)CC7)cc6C5)nc(OC[C@@]56CCCN5C[C@H](F)C6)nc4c3F)c12` [Example 477, (5-(7-(8-ethyl-7-fluoro-3-hydroxynaphthalen-1-yl)-8-fluoro-2-(((2R,7aS)-2-fluorotetrahydro-1H-pyrrolizin-7a(5H)-yl)methoxy)pyrido[4,3-d]pyrimidin-4-yl)-5,6,7,8-tetrahydro-4H-pyrazolo[1,5-a][1,4]diazepin-2-yl)(4-methylpiperazin-1-yl)methanone]: the half-maximal inhibitory concentration (IC50) in the experiment with pERK in ASPC1 cells was 61 nM; in the experiment with pERK in H358 cells, 180 nM; at KRas G12D, at most 2 nM; at KRas G12R, at most 2 nM; in the experiment with pERK in H727 cells, 456 nM; with pERK in A549 cells, 865 nM. Further, the IC50 is 67 nM in the experiment with pERK in MKN1 cells; 1570 nM in the experiment with pERK in H460 cells; at least 10000 nM in the experiment on pERK in PSN1 cells; at most 2 nM at KRas G12V; 2840 nM in the experiment with pERK in HCT116 cells.
As to `CCc1c(F)ccc2cc(O)cc(-c3ncc4c(N5CCOCC(C)(CO)C5)nc(OC[C@@]56CCCN5C[C@H](F)C6)nc4c3F)c12` (stereo partly drawn) [Example 496, 5-ethyl-6-fluoro-4-(8-fluoro-2-(((2R,7aS)-2-fluorotetrahydro-1H-pyrrolizin-7a(5H)-yl)methoxy)-4-(6-(hydroxymethyl)-6-methyl-1,4-oxazepan-4-yl)pyrido[4,3-d]pyrimidin-7-yl)naphthalen-2-ol], the half-maximal inhibitory concentration (IC50) with pERK in ASPC1 cells amounted to 95 nM; in the experiment on pERK in H358 cells it was 117 nM; against KRas G12D, 24 nM; at KRas G12R, 6 nM; in the experiment with pERK in H727 cells, 407 nM; in the experiment on pERK in A549 cells, 261 nM. Also, the IC50 with pERK in MKN1 cells is 68 nM; in the experiment on pERK in H460 cells it was 245 nM; with pERK in PSN1 cells, 8290 nM; at KRas G12V, 11 nM; in the experiment with pERK in HCT116 cells, 525 nM.
On to `CCc1c(F)ccc2cc(O)cc(-c3ncc4c(N5CCOC[C@@]6(C5)CC6(F)F)nc(OC[C@@]56CCCN5C[C@H](F)C6)nc4c3F)c12` [Example 498, 4-(4-((S)-1,1-difluoro-5-oxa-8-azaspiro[2.6]nonan-8-yl)-8-fluoro-2-(((2R,7aS)-2-fluorohexahydro-1H-pyrrolizin-7a-yl)methoxy)pyrido[4,3-d]pyrimidin-7-yl)-5-ethyl-6-fluoronaphthalen-2-ol], for which the IC50 in the experiment with pERK in ASPC1 cells is 47 nM; in the experiment on pERK in H358 cells, 21 nM; on KRas G12D, 5 nM; against KRas G12R, 3 nM; in the experiment with pERK in H727 cells, 64 nM; in the experiment on pERK in A549 cells, 48 nM. Also, the IC50 in the experiment with pERK in MKN1 cells was 13 nM; with pERK in H460 cells it was 66 nM; with pERK in PSN1 cells, at least 10000 nM; against KRas G12V, 3 nM; with pERK in HCT116 cells, 168 nM.
With `CCc1c(F)ccc2cc(O)cc(-c3ncc4c(N5CCCn6nc(C(=O)N(C)C)c(Cl)c6C5)nc(OC[C@@]56CCCN5C[C@H](F)C6)nc4c3F)c12` [Example 504, 3-chloro-5-(7-(8-ethyl-7-fluoro-3-hydroxynaphthalen-1-yl)-8-fluoro-2-(((2R,7aS)-2-fluorohexahydro-1H-pyrrolizin-7a-yl)methoxy)pyrido[4,3-d]pyrimidin-4-yl)-N,N-dimethyl-5,6,7,8-tetrahydro-4H-pyrazolo[1,5-a][1,4]diazepine-2-carboxamide], the IC50 in the experiment with pERK in ASPC1 cells is 4 nM; with pERK in H358 cells, 2 nM; against KRas G12D it was at most 2 nM; against KRas G12R, at most 2 nM; in the experiment on pERK in H727 cells, 6 nM; in the experiment on pERK in A549 cells, 11 nM. The IC50 in the experiment with pERK in MKN1 cells was 8 nM; with pERK in H460 cells it was 53 nM; in the experiment on pERK in PSN1 cells it was 4830 nM; on KRas G12V, at most 2 nM; with pERK in HCT116 cells it was 81 nM.
Regarding `CCc1c(F)ccc2cc(O)cc(-c3ncc4c(N5CCCC6(CCS(=O)(=O)C6)C5)nc(OC[C@@]56CCCN5C[C@H](F)C6)nc4c3F)c12` (stereo partly drawn) [Example 507, 7-(7-(8-ethyl-7-fluoro-3-hydroxynaphthalen-1-yl)-8-fluoro-2-(((2R,7aS)-2-fluorohexahydro-1H-pyrrolizin-7a-yl)methoxy)pyrido[4,3-d]pyrimidin-4-yl)-2-thia-7-azaspiro[4.5]decane 2,2-dioxide], the IC50 is 25 nM in the experiment with pERK in ASPC1 cells; 40 nM in the experiment on pERK in H358 cells; at most 2 nM on KRas G12D; 4 nM against KRas G12R; 262 nM in the experiment with pERK in H727 cells; 345 nM in the experiment on pERK in A549 cells. For the same molecule, the IC50 in the experiment on pERK in MKN1 cells is 7 nM; in the experiment with pERK in H460 cells it was 179 nM; in the experiment on pERK in PSN1 cells, 1950 nM; against KRas G12V, at most 2 nM; in the experiment with pERK in HCT116 cells it was 341 nM.
Turning to `CCc1c(F)ccc2cc(O)cc(-c3ncc4c(N5CCC[C@@](C)(O)C5)nc(OC[C@@]56CCCN5[C@H](COC(=O)N5CCOCC5)CC6)nc4c3F)c12` [Example 511, ((3S,7aS)-7a-(((7-(8-ethyl-7-fluoro-3-hydroxynaphthalen-1-yl)-8-fluoro-4-((R)-3-hydroxy-3-methylpiperidin-1-yl)pyrido[4,3-d]pyrimidin-2-yl)oxy)methyl)hexahydro-1H-pyrrolizin-3-yl)methyl morpholine-4-carboxylate], the IC50 in the experiment with pERK in ASPC1 cells was 8 nM; in the experiment on pERK in H358 cells, 6 nM; on KRas G12D it was at most 2 nM; against KRas G12R it was at most 2 nM; in the experiment on pERK in H727 cells it was 25 nM; with pERK in A549 cells, 23 nM. Also, the IC50 was 2 nM with pERK in MKN1 cells; 27 nM with pERK in H460 cells; 1040 nM in the experiment with pERK in PSN1 cells; at most 2 nM at KRas G12V; 45 nM with pERK in HCT116 cells.
Consider `CCc1c(F)ccc2cc(O)cc(-c3ncc4c(N5CCC[C@@](C)(O)C5)nc(OC[C@@]56CCCN5[C@@H](COC(=O)N(C)C)CC6)nc4c3F)c12` [Example 512, ((3R,7aS)-7a-(((7-(8-ethyl-7-fluoro-3-hydroxynaphthalen-1-yl)-8-fluoro-4-((R)-3-hydroxy-3-methylpiperidin-1-yl)pyrido[4,3-d]pyrimidin-2-yl)oxy)methyl)hexahydro-1H-pyrrolizin-3-yl)methyl dimethylcarbamate], for which the IC50 in the experiment on pERK in ASPC1 cells was determined as 55 nM; with pERK in H358 cells, 53 nM; on KRas G12D, 5 nM; at KRas G12R it was 8 nM; with pERK in H727 cells, 80 nM; with pERK in A549 cells it was 68 nM. Besides, the IC50 stood at 14 nM in the experiment on pERK in MKN1 cells; 130 nM in the experiment with pERK in H460 cells; 2830 nM in the experiment on pERK in PSN1 cells; 5 nM against KRas G12V; 291 nM in the experiment with pERK in HCT116 cells.
